Measured values as given in patent US7084141B2, “Inhibitors of macrophase migration inhibitory factor and methods for identifying the same” (Avanir Pharmaceuticals, priority 2001, dated 2006).

What was measured:
[1] = biological target: T1, MIF produced by THP-1 cells (Homo sapiens, UniProt P14174); test: High throughput screening ELISA for MIF inhibitors (THP-1 supernatant / pre-conditioned media incubated with inhibitor); assay type: binding; details: absence of cells, 30 minutes at 37° C.
T1 construct: a test cell may express the MIF naturally (e.g., THP-1 cells); endogenous in cells; host or cells: THP-1 cells stimulated with LPS
T1 sequence (P14174 2-115 limits assumed): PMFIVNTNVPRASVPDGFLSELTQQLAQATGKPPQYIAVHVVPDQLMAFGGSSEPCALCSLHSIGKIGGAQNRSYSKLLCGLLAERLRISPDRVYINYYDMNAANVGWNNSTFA
Procedure: Alternatively, ELISA may be preferred to detect and quantify the amount of MIF in cell supernatants. ELISA is preferred for detection in high throughput screening. Briefly, 96-well plates are coated with an anti-MIF antibody or anti-tag antibody, washed, and blocked with 2% BSA. Cell supernatant is then added to the wells. Following incubation and washing, a second antibody (e.g., to MIF) is added. The second antibody may be coupled to a label or detecting reagent, such as an enzyme or to biotin. Following further incubation, a developing reagent is added and the amount of MIF determined using an ELISA plate reader. […]
In the previous experiment (FIG. 3), the ability of compound 7e to modulate antibody binding to MIF protein was analyzed in the presence of LPS-stimulated THP1 cells. […] Six hours later, the conditioned media was removed, clarified of cell debris and the amount of MIF determined to be 22 ng/ml. […] The level of detectable MIF was then determined by ELISA using the monoclonal anti-MIF antibody for detection. […]
The high throughput screening assay for MIF inhibitors is performed in a 96-well format using MIF produced by THP-1 cells and is performed as follows. […] The amount of MIF is calculated by interpolation from an MIF standard curve.

serum TNF-α = test: Serum TNF-α after LPS challenge in mice (ELISA); assay type: in vivo, mouse; details: 20 mg/kg compound, LPS 5 mg/kg, four hours
Procedure: Ten 10-week-old (20±2 gram) female BALB/c mice (Charles River Laboratories, Kingston, N.Y.) were housed in a group of 5 per cage with free access to food and water and were acclimatized for at least one week prior to experimentation. On the day of experiment, mice were weighed and randomly distributed into group of 10 animals of equal mean body weight. Mice were injected i.p. with 200 μL of formulated compound 7e or buffer alone immediately before the i.p. injection of LPS (Escherichia coli 0111:B4, 10 mg/kg or 5 mg/kg body weight) and β-D-galactosamine (50 mg/kg body weight). […] Mouse serum Il-1β and TNF-α were measured by ELISA using a “mouse IL 1β immunoassay or mouse TNF-α immunoassay” kits (R&D System Minneapolis, Minn.) following manufacturer's direction. Serum MIF concentrations in mouse serum were quantified by a sandwich ELISA (ChemiKine MIF Kit, Chemicon, San Diego, Calif.). Samples were analyzed in duplicate, and results were averaged.
An initial control experiment was conducted to determine the base line levels of endogenous MIF in the murine model system (female Balb/c mice), and further to determine the rate and extent of increase in endogenous MIF following treatment with LPS (10 mg/kg). […] The level of MIF in serum was measured by HPLC as described above at 0, 2, 5 and 6 hours following LPS/galactosamine treatment. […]

Structure (SMILES): Cn1c(=O)c([N+](=O)[O-])c(N2CCN(C(=O)c3ccco3)CC2)c2ccccc21 [compound 7e]
- MIF specific ELISA signal in pre-conditioned media [1]: rapid loss of MIF specific ELISA signal
- serum TNF-α level (serum TNF-α): reductions
